Measured values: US5646188A, “Polyamine derivatives of 1-aminoindan” (priority 1995, dated 1997)
Like-named read-outs stand apart in the source and are kept apart here.

Columns and labels:
[1] = tested on: Cultures of Dissociated Neonatal Rat Cerebellum; assay: Reversal of NMDA Induced Cell Death in cultures of dissociated neonatal rat cerebellum; type: cell-based; conditions: for PERCENT PROTECTION: cell survival minus the NMDA effect (30%); for viability at 0.1 µM: 0.100 μM + NMDA (1 mM, 3 hours); for viability at 1 µM: 1.000 μM + NMDA (1 mM, 3 hours); for viability at 0.005 µM: 0.005 μM + NMDA (1 mM, 3 hours); for viability at 0.01 µM: 0.010 μM + NMDA (1 mM, 3 hours)
Description: (§1) The cerebellum was aseptically dissociated from 6 or 7-day old rat pups and placed in a 15 ml sterile plastic conical tube containing 3 ml of Dulbecco's modified Eagle's medium (DMEM) with a high glucose concentration ([…]) and 2 mM (v/v) L-glutamine and an antibiotic antimitotic mixture. The cerebella were then dissociated after 20-25 passages through a sterile 13 gauge, 10 cm long stainless steel needle attached to a 5 ml syringe with an inserted 45 micrometer pore nylon sieve. The dissociated cells were centrifuged at 200 g for 5 minutes.
Cells were plated at a density of 200/mm^2 on poly-L-lysine coated surfaces. […] The plated cells were covered with enriched medium and incubated at 37° C. in an atmosphere of 5% CO2 in air and 97% humidity. […] Each test compound was tested in duplicate. Toxic-dose response was determined for each compound over a range from 0.005-1000 micromole. Four groups were run in each set of experiments;
I. Control, consisting of enriched media alone,
II. N-methyl-D-aspartate (NMDA, 1 mM for 3 hours) as the cytotoxic challenge,
III. Test compound plus NMDA, and
IV. Positive control, spermine, spermidine or putrescine (0.01 micromoles) plus NMDA.
Surviving cells in Culture are measured relative to control (100%) as described above. Percent protection is the Cell Survival for the test compound minus the NMDA effect. […] The Effective Protection was calculated as the percent of the Percent Protection (X) divided by the maximal protection value (e.g. X×100/70).

In Vitro Cell Toxicity = conditions: rat, cerebellum cell culture
Description: as §1, with “minutes. […] Cell viability was determined by the tryptan blue exclusion test.” for “minutes.”
Cells were plated at a density of 200/mm^2 on poly-L-lysine coated surfaces. Poly-L-lysine coated glass coverslips were prepared at least one hour in advance of plating by immersing sterile coverslips in sterile distilled water solution containing 15 microgram/ml poly-L-lysine, and washing in sterile water just prior. to use. […] After three days in culture, the media was replaced with media containing the desired test compound. Each test compound was tested in duplicate. Toxic-dose response was determined for each compound over a range from 0.005-1000 micromole. Four groups were run in each set of experiments;
Nerve cell survival was evaluated by phase contrast microscopy and tryptan blue staining after 24 hours.
Toxic dose-response curves were compiled using the protocol described above.

[2] = tested on: pyramidal neurons throughout the CA1 layer of the anterior hippocampus; assay: Global Brain Ischemia In Gerbils; type: in vivo, mongolian gerbils; conditions: Meriones unguiculatus, Pyramidal neuron, ip, 336 h, read-out: PERCENT PROTECTION
Description: Male mongolian gerbils, aged 2.5-5 months, housed 4-8 in a cage, were supplied freely with food and water and maintained at 24° C. with a 12 hour day/night cycle.
For surgery the animals were anesthetized with halothane (1.5% in 100% O2) and the common carotid arteries exposed bilaterally through a midline ventral neck incision. Each artery was clamped for 5 minutes with aneurysm clips to produce global brain ischemia. The anesthesia was discontinued upon clamping. After 5 minutes the clamps were removed and the wound closed with skin clips.
For treatment, the test compound or vehicle was injected intra-peritoneally(ip) in a volume of 50 microlitres of solvent per 10 g body weight. The first injection was given two minutes after clamp removal, and thereafter daily for the next 2 post-operative days (total of 3 injections).
Seven groups each of 4-8 animals were compared:
I. Control; (sham- or unoperated and saline treated),
II. Vehicle treated, unoperated (when solvent is other than saline),
III. Ischemia--untreated or saline treated),
IV. Ischemia--vehicle treated (when solvent is other than saline),
V. Ischemia--Test compound treated, one sub-group per concentration tested,
VI. Ischemia and pentobarbital (40 mg/kg) as positive control).
Analysis of neuronal damage was performed 14 days post-ischemia by counting pyramidal neurons throughout the CA1 layer of the anterior hippocampus in […] thick (paraffin) coronal brain sections stained with hematoxylin and erosin.
Percent Protection values represent the fraction of hippocampi protected from ischemia in a group of animals treated with the stated dose of compound.

[3] = Rattus norvegicus, 24 hours, read-out: SURVIVING CELL IN CULTURE (relative to control, 100%)
[4] = 1.0 mg/kg ip, 3 daily injections, 14 days post-ischemia, fraction of hippocampi protected
[5] = 10.0 mg/kg ip, 3 daily injections, 14 days post-ischemia, fraction of hippocampi protected

SMILES	PERCENT PROTECTION ([1]; 0.005 μM + NMDA) [%]	PERCENT PROTECTION ([1]; 0.010 μM + NMDA) [%]	PERCENT PROTECTION ([1]; 0.100 μM + NMDA) [%]	CC50 at 24 h (In Vitro Cell Toxicity) [µM]	responders at 0.1 mg/kg [2] [%]	responders at 1 mg/kg [2] [%]	responders at 10 mg/kg [2] [%]	PERCENT PROTECTION ([1]; 1.000 μM + NMDA) [%]	viability at 0.1 µM [1, 3] [%]	viability at 1 µM [1, 3] [%]	responders at 1 mg/kg [2, 4] [%]	responders at 10 mg/kg [2, 5] [%]	viability at 0.005 µM [1, 3] [%]	viability at 0.01 µM [1, 3] [%]	PERCENT PROTECTION ([1]; 10.00 μM + NMDA) [%]	viability at 10 µM ([1]; Rattus norvegicus, 10.00 μM + NMDA (1 mM, 3 hours), 24 hours, read-out: SURVIVING CELL IN CULTURE (relative to control, 100%)) [%]
N[C@@H]1CCc2ccccc21 [(R)-1-aminoindan, reference compound]	50	0	-2	175	25	25	25	–	–	–	–	–	–	–	–	–
NCCCCNC1CCc2ccccc21 (stereo not drawn) [Compound 2710]	–	–	42	30	–	–	–	40	72	70	25	37	–	–	–	–
NCCCCN(CCCCN)[C@@H]1CCc2ccccc21 [Compound 2726, (R)-N,N-di(4-amino-n-butyl)-1-aminoindan]	99	25	–	1.7	–	–	–	–	–	–	–	50	129	55	–	–
NCCCCN(CCCCN)C1CCc2ccccc21 (racemic) [Compound 2711, racemic N,N-di(4-amino-n-butyl)-1-aminoindan]	44	38	32	60	–	50	–	–	62	–	–	86	74	68	–	–
NCCCCN(CCCN)C1CCc2ccccc21 (stereo not drawn) [Compound 2722, N-(4-amino-n-butyl)-N-(3-amino-n-propyl)-1-aminoindan]	85	57	–	20	–	–	–	–	–	–	50	25	115	87	–	–
NCCCNCCCCNC1CCc2ccccc21 (stereo not drawn) [Compound 2724]	65	57	–	4	–	–	–	–	–	–	12	56	95	87	–	–
NCCCNC1CCc2ccccc21 (stereo not drawn) [Compound 2709, N-(3-aminopropyl)-1-aminoindan]	-4	23	29	50	–	–	–	13	59	43	12	31	26	53	8	38
N[C@@H]1C[C@@H](N)c2ccccc21 (relative stereo) [Compound 2716, trans 1,3-diaminoindan]	35	0	-5	0.7	–	–	–	0	25	30	50	0	65	30	–	–
NCCCCNCCCNC1CCc2ccccc21 (stereo not drawn) [Compound 2720]	42	8	2	0.2	–	–	–	–	32	–	–	58	72	38	–	–
